The values below come from patent US12030878B2 (BRISTOL-MYERS SQUIBB COMPANY, priority 2017, dated 2024).

Common to all, as to type: cell-based
Assay [1] concerns the target T1, human TLR7 (Homo sapiens, UniProt Q9NYK1).
T1 construct: host or cells: HEK-Blue cells
T1 sequence (Q9NYK1 27-1049): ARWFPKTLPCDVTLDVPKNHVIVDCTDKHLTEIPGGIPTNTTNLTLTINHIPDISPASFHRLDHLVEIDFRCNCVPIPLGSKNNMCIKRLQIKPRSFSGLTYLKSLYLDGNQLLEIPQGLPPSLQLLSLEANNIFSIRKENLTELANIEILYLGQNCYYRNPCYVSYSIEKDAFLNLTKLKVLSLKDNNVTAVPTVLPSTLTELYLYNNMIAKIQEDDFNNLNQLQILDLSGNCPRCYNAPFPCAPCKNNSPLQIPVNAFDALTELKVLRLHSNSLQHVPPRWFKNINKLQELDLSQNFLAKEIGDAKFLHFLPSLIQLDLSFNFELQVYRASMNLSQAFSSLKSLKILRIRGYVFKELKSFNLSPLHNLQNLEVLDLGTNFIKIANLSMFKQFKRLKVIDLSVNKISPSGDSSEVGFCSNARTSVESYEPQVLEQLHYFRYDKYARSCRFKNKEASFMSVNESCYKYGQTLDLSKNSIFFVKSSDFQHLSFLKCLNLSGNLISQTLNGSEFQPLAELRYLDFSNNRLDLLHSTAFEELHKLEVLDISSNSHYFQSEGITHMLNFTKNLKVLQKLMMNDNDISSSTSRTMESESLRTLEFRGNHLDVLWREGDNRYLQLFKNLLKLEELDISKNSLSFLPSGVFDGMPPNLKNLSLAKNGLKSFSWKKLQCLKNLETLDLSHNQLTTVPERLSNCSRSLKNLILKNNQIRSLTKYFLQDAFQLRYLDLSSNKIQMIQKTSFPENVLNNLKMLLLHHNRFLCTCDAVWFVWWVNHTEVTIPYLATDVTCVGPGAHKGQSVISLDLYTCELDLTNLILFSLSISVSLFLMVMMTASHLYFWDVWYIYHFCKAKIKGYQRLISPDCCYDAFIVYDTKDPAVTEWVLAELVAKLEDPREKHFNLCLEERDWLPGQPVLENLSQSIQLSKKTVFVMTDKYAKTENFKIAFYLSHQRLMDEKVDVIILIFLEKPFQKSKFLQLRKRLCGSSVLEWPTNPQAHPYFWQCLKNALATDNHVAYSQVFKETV
The experiment in a line: TLR7 inhibition reporter assay (HEK-Blue SEAP). As to conditions: HEK-Blue cells overexpressing human TLR7, stimulated with gardiquimod 7.5 μM, 22 hour incubation. Summed up:
(§1)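 Test compounds, final 0.05 nM–50 μM, pre-treat HEK-Blue human TLR7, TLR8 or TLR9 reporter cells before agonist addition (TLR8 R848 15.9 μM; TLR7 gardiquimod 7.5 μM; TLR9 ODN2006 5 nM). Incubation runs 22 h, 37 °C. SEAP detection gives percent inhibition against DMSO and reference-inhibitor controls.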

For assay [2], the target named is T2, human TLR9 (Homo sapiens, UniProt Q9NR96).
T2 construct: host or cells: HEK-Blue cells
T2 sequence (Q9NR96 26-1032): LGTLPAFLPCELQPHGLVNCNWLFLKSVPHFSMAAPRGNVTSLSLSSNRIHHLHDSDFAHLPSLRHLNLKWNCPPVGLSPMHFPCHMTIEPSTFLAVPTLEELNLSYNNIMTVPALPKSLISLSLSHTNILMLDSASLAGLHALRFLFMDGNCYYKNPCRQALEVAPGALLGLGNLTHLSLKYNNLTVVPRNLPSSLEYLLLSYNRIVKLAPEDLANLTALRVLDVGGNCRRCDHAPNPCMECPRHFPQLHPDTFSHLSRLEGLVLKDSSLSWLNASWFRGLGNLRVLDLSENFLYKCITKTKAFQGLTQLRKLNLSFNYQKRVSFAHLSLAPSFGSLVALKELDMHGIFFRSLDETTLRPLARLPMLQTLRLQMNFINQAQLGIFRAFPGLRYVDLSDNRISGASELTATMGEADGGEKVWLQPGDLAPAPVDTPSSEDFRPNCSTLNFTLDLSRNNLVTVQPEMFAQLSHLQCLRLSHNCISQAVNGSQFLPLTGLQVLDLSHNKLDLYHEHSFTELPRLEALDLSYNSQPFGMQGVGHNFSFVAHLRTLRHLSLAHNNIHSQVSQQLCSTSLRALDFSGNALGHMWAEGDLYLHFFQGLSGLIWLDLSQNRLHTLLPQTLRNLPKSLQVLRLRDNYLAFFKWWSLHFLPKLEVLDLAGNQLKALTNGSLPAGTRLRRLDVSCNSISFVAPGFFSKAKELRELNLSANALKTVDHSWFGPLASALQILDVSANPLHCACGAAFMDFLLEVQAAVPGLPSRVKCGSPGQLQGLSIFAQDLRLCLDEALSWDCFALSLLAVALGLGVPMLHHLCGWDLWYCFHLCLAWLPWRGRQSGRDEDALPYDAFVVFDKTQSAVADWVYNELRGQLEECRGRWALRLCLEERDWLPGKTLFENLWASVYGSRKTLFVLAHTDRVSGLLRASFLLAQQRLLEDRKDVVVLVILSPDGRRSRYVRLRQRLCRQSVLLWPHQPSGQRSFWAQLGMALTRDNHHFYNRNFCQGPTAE
The experiment in a line: TLR9 inhibition reporter assay (HEK-Blue SEAP). The conditions noted are these: HEK-Blue cells overexpressing human TLR9, stimulated with ODN2006 5 nM, 22 hour incubation. Summed up:
as §1

Assay [3] deals with T3, human TLR8 (Homo sapiens, UniProt Q9NR97).
T3 construct: host or cells: HEK-Blue cells
T3 sequence (Q9NR97 27-1041): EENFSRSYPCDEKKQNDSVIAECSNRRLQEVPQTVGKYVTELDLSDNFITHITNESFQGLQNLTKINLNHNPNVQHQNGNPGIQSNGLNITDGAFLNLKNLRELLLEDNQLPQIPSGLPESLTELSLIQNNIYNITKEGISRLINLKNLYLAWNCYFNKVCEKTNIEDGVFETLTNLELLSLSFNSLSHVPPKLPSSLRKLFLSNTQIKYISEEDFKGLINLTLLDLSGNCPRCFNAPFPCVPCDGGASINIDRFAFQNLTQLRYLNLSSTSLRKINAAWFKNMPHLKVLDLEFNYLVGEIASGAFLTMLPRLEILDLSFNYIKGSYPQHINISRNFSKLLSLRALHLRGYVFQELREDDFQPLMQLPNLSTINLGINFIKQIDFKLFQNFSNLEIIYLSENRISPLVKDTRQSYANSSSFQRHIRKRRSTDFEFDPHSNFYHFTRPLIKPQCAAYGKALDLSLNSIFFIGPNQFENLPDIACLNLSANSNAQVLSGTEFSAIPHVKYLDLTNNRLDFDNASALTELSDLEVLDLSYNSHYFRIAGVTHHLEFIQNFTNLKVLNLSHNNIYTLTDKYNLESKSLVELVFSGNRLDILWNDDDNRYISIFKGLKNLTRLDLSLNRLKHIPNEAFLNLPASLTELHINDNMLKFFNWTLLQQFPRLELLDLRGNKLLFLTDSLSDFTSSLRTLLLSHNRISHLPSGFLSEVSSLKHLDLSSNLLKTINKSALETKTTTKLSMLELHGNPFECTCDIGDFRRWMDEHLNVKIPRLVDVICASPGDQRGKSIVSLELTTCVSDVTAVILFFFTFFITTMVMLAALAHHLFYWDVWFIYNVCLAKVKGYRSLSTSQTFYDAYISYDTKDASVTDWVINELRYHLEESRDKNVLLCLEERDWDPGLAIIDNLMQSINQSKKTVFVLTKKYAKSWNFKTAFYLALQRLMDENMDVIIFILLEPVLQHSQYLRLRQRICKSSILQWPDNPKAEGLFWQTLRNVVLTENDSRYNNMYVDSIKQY
The experiment in a line: TLR8 inhibition reporter assay (HEK-Blue SEAP). The conditions noted are these: HEK-Blue cells overexpressing human TLR8, stimulated with R848 15.9 μM, 22 hour incubation. Summed up:
as §1
In general terms: In a reporter assay the amount or activity of a reporter protein is the signal.

Broadly, the IC50 is the midpoint of a concentration-inhibition curve. Low readings indicate inhibition by little substance, high ones a need for much substance. For the compound `Cc1cc(-c2[nH]c3ccc(OC4CCN(CC(=O)N(C)C)CC4)cc3c2C(C)C)cc(C)n1` [Example 79, 2-(4-((2-(2,6-dimethylpyridin-4-yl)-3-isopropyl-1H-indol-5-yl)oxy)piperidin-1-yl)-N,N-dimethylacetamide], the IC50 in assay [1] came out at 8 nM; in assay [2] it was 447 nM; in assay [3] it was 3.2 nM.
The matching figures for `Cc1cc(-c2[nH]c3ccc(OCC4CCN(CC(=O)N(C)C)CC4)cc3c2C(C)C)cc(C)n1` [Example 80, 2-(4-(((2-(2,6-dimethylpyridin-4-yl)-3-isopropyl-1H-indol-5-yl)oxy)methyl)piperidin-1-yl)-N,N-dimethylacetamide]: 7.7 nM, 398 nM and 8.5 nM.
`Cc1cc(-c2[nH]c3ccc(OCC4CCN(CC(=O)N(C)C)CC4)cc3c2C(C)C)cn(C)c1=O` [Example 81, 2-(4-(((2-(1,5-dimethyl-6-oxo-1,6-dihydropyridin-3-yl)-3-isopropyl-1H-indol-5-yl)oxy)methyl)piperidin-1-yl)-N,N-dimethylacetamide]: the values for the IC50 in assay [1], in assay [2] and in assay [3] were 26.1 nM, 24900 nM and 9.7 nM, respectively.
The matching figures for `Cc1cc(-c2[nH]c3ccc(O[C@H]4CCCN(CC(=O)N(C)C)C4)cc3c2C(C)C)cn(C)c1=O` [Example 82, (S)-2-(3-((2-(1,5-dimethyl-6-oxo-1,6-dihydropyridin-3-yl)-3-isopropyl-1H-indol-5-yl)oxy)piperidin-1-yl)-N,N-dimethylacetamide]: 17.3 nM, 40600 nM and 27.6 nM.
On the same counts, the results for `Cc1cc(-c2[nH]c3ccc(O[C@H]4CCCN(CC(=O)N(C)C)C4)cc3c2C(C)C)cn2ncnc12` [Example 83, (S)-2-(3-((3-isopropyl-2-(8-methyl-[1,2,4]triazolo[1,5-a]pyridin-6-yl)-1H-indol-5-yl)oxy)piperidin-1-yl)-N,N-dimethylacetamide] are 1.8 nM, 5670 nM and 28.2 nM.
Turning to `Cc1cc(-c2[nH]c3ccc(OC4CCCN(CC(=O)N(C)C)C4)cc3c2C(C)C)cn(C)c1=O` (stereo not drawn) [Example 84, 2-(3-((2-(1,5-dimethyl-6-oxo-1,6-dihydropyridin-3-yl)-3-isopropyl-1H-indol-5-yl)oxy)piperidin-1-yl)-N,N-dimethylacetamide], the figures for the IC50 in assay [1], in assay [2] and in assay [3] were 6.5 nM, 16900 nM and 2.9 nM, respectively.
For `Cc1cc(-c2[nH]c3ccc(OC4CCN(CC(=O)N(C)C)CC4)cc3c2C(C)C)cn2ncnc12` [Example 85, 2-(4-((3-isopropyl-2-(8-methyl-[1,2,4]triazolo[1,5-a]pyridin-6-yl)-1H-indol-5-yl)oxy)piperidin-1-yl)-N,N-dimethylacetamide], the IC50 in assay [1] came out at 2.1 nM; in assay [2], 1350 nM; in assay [3] it was 2.9 nM.
The matching figures for `Cc1cc(-c2[nH]c3ccc(OCC4CCN(CC(=O)N(C)C)CC4)cc3c2C(C)C)cn2ncnc12` [Example 86, 2-(4-(((3-isopropyl-2-(8-methyl-[1,2,4]triazolo[1,5-a]pyridin-6-yl)-1H-indol-5-yl)oxy)methyl)piperidin-1-yl)-N,N-dimethylacetamide]: 0.4 nM, 4380 nM and 2.8 nM.
For `Cc1c(-c2[nH]c3ccc(OC4CCN(CC(=O)N(C)C)CC4)cc3c2C(C)C)cn(C)c(=O)c1C` [Example 87, 2-(4-((3-isopropyl-2-(1,4,5-trimethyl-6-oxo-1,6-dihydropyridin-3-yl)-1H-indol-5-yl)oxy)piperidin-1-yl)-N,N-dimethylacetamide], the IC50 in assay [1] amounted to 33.2 nM; in assay [2], 19600 nM; in assay [3] it was 5.8 nM.
The matching figures for `Cc1c(-c2[nH]c3ccc(OCC4CCN(CC(=O)N(C)C)CC4)cc3c2C(C)C)cn(C)c(=O)c1C` [Example 88, 2-(4-(((3-isopropyl-2-(1,4,5-trimethyl-6-oxo-1,6-dihydropyridin-3-yl)-1H-indol-5-yl)oxy)methyl)piperidin-1-yl)-N,N-dimethylacetamide]: 50.9 nM, 15300 nM and 22.4 nM.
The matching figures for `Cc1c(-c2[nH]c3ccc(OCC4CCN(CC(=O)N(C)C)CC4)cc3c2C(C)C)cn2cnnc2c1C` [Example 89, 2-(4-(((2-(7,8-dimethyl-[1,2,4]triazolo[4,3-a]pyridin-6-yl)-3-isopropyl-1H-indol-5-yl)oxy)methyl)piperidin-1-yl)-N,N-dimethylacetamide]: 7.6 nM, 6870 nM and 16.5 nM.
The matching figures for `Cc1c(-c2[nH]c3ccc(OC4CCN(CC(=O)N(C)C)CC4)cc3c2C(C)C)cn2cnnc2c1C` [Example 90, 2-(4-((2-(7,8-dimethyl-[1,2,4]triazolo[4,3-a]pyridin-6-yl)-3-isopropyl-1H-indol-5-yl)oxy)piperidin-1-yl)-N,N-dimethylacetamide]: 8.3 nM, 12900 nM and 13.3 nM.
